Legend:
[1] = molecular target: Serine/threonine-protein kinase 24 (Homo sapiens) (UniProt Q9Y6E0); experiment: Inhibition of wild-type human partial length MST3 (A30 to S311 residues) expressed in bacterial expression system at 1 uM by Kinomescan method relative to control
[2] = molecular target: Calcium-dependent protein kinase 1 (Plasmodium falciparum) (UniProt P62344); experiment: Inhibition of wild-type Plasmodium falciparum full length CDPK1 (M1 to S524 residues) expressed in mammalian expression system at 1 uM by Kinomescan method relative to control
Calcium-dependent protein kinase 1 (Plasmodium falciparum), sequence (P62344 2-524 limits assumed): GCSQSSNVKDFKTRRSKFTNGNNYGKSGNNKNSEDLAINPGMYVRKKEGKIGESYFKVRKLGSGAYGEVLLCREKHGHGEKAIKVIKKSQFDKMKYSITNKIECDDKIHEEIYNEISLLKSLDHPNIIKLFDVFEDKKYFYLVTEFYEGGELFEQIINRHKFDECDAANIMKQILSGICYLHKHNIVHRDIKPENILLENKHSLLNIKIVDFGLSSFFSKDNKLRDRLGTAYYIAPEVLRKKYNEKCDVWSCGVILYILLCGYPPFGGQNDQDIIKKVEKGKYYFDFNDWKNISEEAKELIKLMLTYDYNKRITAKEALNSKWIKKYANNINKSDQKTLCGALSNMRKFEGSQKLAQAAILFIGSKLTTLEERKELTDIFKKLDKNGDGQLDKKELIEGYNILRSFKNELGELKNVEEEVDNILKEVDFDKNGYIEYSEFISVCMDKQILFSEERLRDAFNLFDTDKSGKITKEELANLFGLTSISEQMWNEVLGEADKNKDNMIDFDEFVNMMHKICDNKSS

[3] = molecular target: MAP kinase-activated protein kinase 5 (Homo sapiens) (UniProt Q8IW41); experiment: Inhibition of wild-type human partial length MAPKAPK5 (M1 to D322 residues) expressed in mammalian expression system at 1 uM by Kinomescan method relative to control
MAP kinase-activated protein kinase 5 (Homo sapiens), sequence (Q8IW41 whole entry, the tested form may be a part): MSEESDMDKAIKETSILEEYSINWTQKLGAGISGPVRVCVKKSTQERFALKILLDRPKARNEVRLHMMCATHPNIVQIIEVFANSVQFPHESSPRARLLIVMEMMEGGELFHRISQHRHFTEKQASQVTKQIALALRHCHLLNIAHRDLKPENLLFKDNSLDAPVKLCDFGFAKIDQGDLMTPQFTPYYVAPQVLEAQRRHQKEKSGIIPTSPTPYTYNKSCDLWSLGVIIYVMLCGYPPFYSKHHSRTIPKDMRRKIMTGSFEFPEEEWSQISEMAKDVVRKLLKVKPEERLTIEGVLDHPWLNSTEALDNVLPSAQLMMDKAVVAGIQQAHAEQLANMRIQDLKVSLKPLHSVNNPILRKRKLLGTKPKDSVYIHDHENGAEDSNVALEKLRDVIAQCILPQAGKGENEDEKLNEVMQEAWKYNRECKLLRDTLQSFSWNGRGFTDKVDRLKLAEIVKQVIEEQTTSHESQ

[4] = molecular target: Myosin-IIIb (Homo sapiens) (UniProt Q8WXR4); experiment: Inhibition of wild-type human partial length MYO3B (M1 to D357 residues) expressed in bacterial expression system at 1 uM by Kinomescan method relative to control
[5] = molecular target: ALK tyrosine kinase receptor (Homo sapiens) (UniProt Q9UM73); experiment: Inhibition of wild-type human partial length ALK (I1088 to E1409 residues) expressed in mammalian expression system at 1 uM by Kinomescan method relative to control
[6] = molecular target: Insulin receptor (Homo sapiens) (UniProt P06213); experiment: Inhibition of wild-type human partial length INSR (P997 to E1318 residues) expressed in mammalian expression system at 1 uM by Kinomescan method relative to control
[7] = Volume of distribution at steady state in Sprague-Dawley rat at 1 mg/kg, iv; type: ADME, organism-based; settings: in vivo, read-out: Vdss
[8] = molecular target: Mitogen-activated protein kinase kinase kinase 15 (Homo sapiens) (UniProt Q6ZN16); experiment: Inhibition of wild-type human partial length MAP3K15 (T625 to L932 residues) expressed in mammalian expression system at 1 uM by Kinomescan method relative to control
Mitogen-activated protein kinase kinase kinase 15 (Homo sapiens), sequence (Q6ZN16 whole entry, the tested form may be a part): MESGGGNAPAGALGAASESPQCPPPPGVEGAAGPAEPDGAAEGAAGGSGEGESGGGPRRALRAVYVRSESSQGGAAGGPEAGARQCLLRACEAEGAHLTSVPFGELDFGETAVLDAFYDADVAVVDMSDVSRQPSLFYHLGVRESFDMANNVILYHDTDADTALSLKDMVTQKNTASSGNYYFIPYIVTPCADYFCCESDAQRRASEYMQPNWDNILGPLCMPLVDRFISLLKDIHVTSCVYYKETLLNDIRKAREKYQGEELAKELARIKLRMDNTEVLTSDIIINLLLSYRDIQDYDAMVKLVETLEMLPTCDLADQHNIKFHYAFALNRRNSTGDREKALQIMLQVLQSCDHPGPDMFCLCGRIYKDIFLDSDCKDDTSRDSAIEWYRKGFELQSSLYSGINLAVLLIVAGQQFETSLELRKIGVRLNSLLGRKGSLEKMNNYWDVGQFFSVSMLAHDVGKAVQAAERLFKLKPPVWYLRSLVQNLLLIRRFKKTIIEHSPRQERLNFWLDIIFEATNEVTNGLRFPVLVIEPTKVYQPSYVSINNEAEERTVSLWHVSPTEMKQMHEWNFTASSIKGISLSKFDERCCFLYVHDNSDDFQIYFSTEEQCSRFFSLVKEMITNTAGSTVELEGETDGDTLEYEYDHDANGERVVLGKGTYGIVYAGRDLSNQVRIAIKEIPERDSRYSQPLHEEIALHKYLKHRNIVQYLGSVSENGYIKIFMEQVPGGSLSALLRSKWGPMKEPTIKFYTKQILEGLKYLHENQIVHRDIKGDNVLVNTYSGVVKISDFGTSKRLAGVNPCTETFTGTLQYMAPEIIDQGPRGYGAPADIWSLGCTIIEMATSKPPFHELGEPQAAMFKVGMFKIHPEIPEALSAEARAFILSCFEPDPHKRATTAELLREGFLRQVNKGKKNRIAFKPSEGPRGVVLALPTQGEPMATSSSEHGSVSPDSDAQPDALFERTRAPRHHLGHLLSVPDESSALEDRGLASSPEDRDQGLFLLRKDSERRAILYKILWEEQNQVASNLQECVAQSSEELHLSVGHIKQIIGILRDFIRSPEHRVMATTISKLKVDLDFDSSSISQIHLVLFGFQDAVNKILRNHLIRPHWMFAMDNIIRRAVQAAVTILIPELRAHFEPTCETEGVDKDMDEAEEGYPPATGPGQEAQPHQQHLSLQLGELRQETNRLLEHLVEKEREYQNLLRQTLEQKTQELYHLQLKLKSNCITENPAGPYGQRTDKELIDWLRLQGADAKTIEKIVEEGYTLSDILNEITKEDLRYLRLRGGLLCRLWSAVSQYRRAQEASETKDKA

[9] = molecular target: Mitogen-activated protein kinase 6 (Homo sapiens) (UniProt Q16659); experiment: Inhibition of wild-type human partial length ERK3 (M1 to P413 residues) expressed in bacterial expression system at 1 uM by Kinomescan method relative to control
[10] = molecular target: Serine/threonine-protein kinase SIK3 (Homo sapiens) (UniProt Q9Y2K2); experiment: Inhibition of wild-type human partial length QSK (A90 to L395 residues) expressed in mammalian expression system at 1 uM by Kinomescan method relative to control
[11] = molecular target: Serine/threonine-protein kinase OSR1 (Homo sapiens) (UniProt O95747); experiment: Inhibition of wild-type human full length OSR1 (M1 to S527 residues) expressed in mammalian expression system at 1 uM by Kinomescan method relative to control
Serine/threonine-protein kinase OSR1 (Homo sapiens), sequence (O95747 2-527 limits assumed): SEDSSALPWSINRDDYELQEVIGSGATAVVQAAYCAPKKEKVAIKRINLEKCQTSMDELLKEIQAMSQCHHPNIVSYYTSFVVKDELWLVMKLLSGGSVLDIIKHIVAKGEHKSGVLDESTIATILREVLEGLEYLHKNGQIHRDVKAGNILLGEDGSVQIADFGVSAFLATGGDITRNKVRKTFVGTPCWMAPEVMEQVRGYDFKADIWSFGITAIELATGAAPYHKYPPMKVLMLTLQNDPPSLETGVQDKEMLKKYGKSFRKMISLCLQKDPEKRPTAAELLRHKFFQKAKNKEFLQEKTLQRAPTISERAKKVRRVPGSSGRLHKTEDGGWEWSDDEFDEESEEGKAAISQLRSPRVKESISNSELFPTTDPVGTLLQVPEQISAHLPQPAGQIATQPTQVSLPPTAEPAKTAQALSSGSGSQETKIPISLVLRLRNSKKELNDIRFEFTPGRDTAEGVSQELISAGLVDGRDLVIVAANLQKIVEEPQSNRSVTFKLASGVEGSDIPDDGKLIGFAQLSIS

[12] = molecular target: Eukaryotic translation initiation factor 2-alpha kinase 1 (Homo sapiens) (UniProt Q9BQI3); experiment: Inhibition of wild-type human partial length EIF2AK1 (Q147 to E603 residues) expressed in mammalian expression system at 1 uM by Kinomescan method relative to control
Eukaryotic translation initiation factor 2-alpha kinase 1 (Homo sapiens), sequence (Q9BQI3 whole entry, the tested form may be a part): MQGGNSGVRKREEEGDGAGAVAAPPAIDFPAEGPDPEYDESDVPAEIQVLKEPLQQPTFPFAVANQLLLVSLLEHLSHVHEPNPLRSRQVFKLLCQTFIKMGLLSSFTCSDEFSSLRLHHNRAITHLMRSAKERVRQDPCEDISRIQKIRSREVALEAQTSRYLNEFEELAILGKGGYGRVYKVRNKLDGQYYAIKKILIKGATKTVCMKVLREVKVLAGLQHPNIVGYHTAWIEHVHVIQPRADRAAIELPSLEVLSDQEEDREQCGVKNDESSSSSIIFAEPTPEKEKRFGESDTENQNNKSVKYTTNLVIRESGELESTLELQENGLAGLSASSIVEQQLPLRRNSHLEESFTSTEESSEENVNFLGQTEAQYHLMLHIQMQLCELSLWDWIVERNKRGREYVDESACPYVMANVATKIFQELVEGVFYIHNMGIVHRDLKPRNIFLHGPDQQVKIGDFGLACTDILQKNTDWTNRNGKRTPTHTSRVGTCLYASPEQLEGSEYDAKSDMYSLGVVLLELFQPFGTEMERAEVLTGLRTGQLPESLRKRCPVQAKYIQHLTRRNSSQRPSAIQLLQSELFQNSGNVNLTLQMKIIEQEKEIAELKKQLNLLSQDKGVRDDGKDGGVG

[13] = molecular target: Serine/threonine-protein kinase Nek5 (Homo sapiens) (UniProt Q6P3R8); experiment: Inhibition of wild-type human partial length NEK5 (M1 to M279 residues) expressed in bacterial expression system at 1 uM by Kinomescan method relative to control
[14] = system: Mast/stem cell growth factor receptor Kit (Homo sapiens), P10721 [V559D]; experiment: Inhibition of human partial length KIT V559D mutant (Y545 to D952 residues) expressed in bacterial expression system at 10 uM by Kinomescan method relative to control
Mast/stem cell growth factor receptor Kit (Homo sapiens), P10721 [V559D], sequence (P10721 whole entry V559D, the tested form may be a part): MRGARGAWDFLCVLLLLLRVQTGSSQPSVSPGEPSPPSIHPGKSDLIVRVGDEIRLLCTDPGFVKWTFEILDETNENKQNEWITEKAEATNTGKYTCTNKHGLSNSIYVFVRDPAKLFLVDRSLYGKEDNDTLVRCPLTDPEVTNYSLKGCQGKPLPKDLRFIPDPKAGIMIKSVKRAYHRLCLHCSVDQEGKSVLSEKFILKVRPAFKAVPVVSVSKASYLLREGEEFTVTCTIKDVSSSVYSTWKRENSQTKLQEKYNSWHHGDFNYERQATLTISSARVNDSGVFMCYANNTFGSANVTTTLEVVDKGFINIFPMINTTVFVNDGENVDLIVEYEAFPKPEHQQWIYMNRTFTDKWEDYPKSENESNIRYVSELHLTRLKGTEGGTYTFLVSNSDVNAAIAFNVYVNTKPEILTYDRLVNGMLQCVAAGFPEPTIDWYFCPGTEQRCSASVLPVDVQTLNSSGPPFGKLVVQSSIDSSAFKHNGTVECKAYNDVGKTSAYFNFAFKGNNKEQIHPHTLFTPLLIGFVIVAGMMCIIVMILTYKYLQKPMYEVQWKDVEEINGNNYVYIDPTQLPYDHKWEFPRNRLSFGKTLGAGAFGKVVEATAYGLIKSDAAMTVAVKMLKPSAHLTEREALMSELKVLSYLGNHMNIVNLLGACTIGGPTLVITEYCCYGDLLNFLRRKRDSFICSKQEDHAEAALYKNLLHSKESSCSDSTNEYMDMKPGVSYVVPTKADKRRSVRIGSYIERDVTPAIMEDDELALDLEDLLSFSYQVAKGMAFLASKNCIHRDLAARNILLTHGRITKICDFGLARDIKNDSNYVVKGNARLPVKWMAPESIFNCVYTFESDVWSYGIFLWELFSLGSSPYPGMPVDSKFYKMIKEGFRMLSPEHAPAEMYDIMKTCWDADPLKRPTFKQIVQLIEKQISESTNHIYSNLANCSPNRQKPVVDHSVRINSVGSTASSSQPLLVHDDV

[15] = molecular target: Serine/threonine-protein kinase Nek9 (Homo sapiens) (UniProt Q8TD19); experiment: Inhibition of wild-type human partial length NEK9 (P32 to R328 residues) expressed in bacterial expression system at 10 uM by Kinomescan method relative to control
[16] = molecular target: Tyrosine-protein kinase TXK (Homo sapiens) (UniProt P42681); experiment: Inhibition of wild-type human partial length TXK (L238 to W527 residues) expressed in bacterial expression system at 10 uM by Kinomescan method relative to control
[17] = molecular target: Mitotic checkpoint serine/threonine-protein kinase BUB1 (Homo sapiens) (UniProt O43683); experiment: Inhibition of wild-type human partial length BUB1 (Q724 to K1085 residues) expressed in mammalian expression system at 10 uM by Kinomescan method relative to control
[18] = molecular target: Protein-tyrosine kinase 6 (Homo sapiens) (UniProt Q13882); experiment: Inhibition of wild-type human partial length BRK (L166 to T451 residues) expressed in bacterial expression system at 10 uM by Kinomescan method relative to control
[19] = molecular target: BDNF/NT-3 growth factors receptor (Homo sapiens) (UniProt Q16620); experiment: Inhibition of wild-type human partial length TRKB (Q547 to G838 residues) expressed in mammalian expression system at 10 uM by Kinomescan method relative to control
[20] = system: Receptor-type tyrosine-protein kinase FLT3 (Homo sapiens), P36888 [D835H]; experiment: Inhibition of human partial length FLT3 D835H mutant (V592 to Y969 residues) expressed in bacterial expression system at 10 uM by Kinomescan method relative to control
[21] = molecular target: Dual specificity mitogen-activated protein kinase kinase 2 (Homo sapiens) (UniProt P36507); experiment: Inhibition of wild-type human full length MEK2 (M1 to V400 residues) expressed in mammalian expression system at 10 uM by Kinomescan method relative to control
[22] = system: Phosphatidylinositol 4,5-bisphosphate 3-kinase catalytic subunit alpha isoform (Homo sapiens), P42336 [H1047Y]; experiment: Inhibition of human partial length PIK3CA H1047Y mutant (R108 to N1068 residues) expressed in mammalian expression system at 10 uM by Kinomescan method relative to control
[23] = molecular target: Cyclin-dependent kinase 5 (Homo sapiens) (UniProt Q00535); experiment: Inhibition of wild-type human full length CDK5 (M1 to P292 residues) expressed in bacterial expression system at 10 uM by Kinomescan method relative to control
[24] = molecular target: Serine/threonine-protein kinase OSR1 (Homo sapiens) (UniProt O95747); experiment: Inhibition of wild-type human full length OSR1 (M1 to S527 residues) expressed in mammalian expression system at 10 uM by Kinomescan method relative to control
[25] = molecular target: Serine/threonine-protein kinase 25 (Homo sapiens) (UniProt O00506); experiment: Inhibition of wild-type human partial length YSK1 (V14 to H295 residues) expressed in bacterial expression system at 10 uM by Kinomescan method relative to control
Serine/threonine-protein kinase 25 (Homo sapiens), sequence (O00506 whole entry, looked up, the tested form may be a part): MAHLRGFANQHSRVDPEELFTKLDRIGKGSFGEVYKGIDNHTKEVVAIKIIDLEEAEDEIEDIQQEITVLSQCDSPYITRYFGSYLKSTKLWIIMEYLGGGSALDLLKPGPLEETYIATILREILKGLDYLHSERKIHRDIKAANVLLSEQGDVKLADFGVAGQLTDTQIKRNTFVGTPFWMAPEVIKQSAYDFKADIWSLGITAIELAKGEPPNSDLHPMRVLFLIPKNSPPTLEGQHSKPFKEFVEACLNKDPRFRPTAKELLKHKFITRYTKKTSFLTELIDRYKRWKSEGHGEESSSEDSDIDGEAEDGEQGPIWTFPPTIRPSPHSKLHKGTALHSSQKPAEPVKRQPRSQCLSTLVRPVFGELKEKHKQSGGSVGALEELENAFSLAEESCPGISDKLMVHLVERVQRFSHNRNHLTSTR

[26] = molecular target: Ribosomal protein S6 kinase alpha-4 (Homo sapiens) (UniProt O75676); experiment: Inhibition of wild-type human partial length C-terminal RPS6KA4 kinase domain 2 (M375 to T705 residues) expressed in mammalian expression system at 10 uM by Kinomescan method relative to control
[27] = system: Proto-oncogene tyrosine-protein kinase receptor Ret (Homo sapiens), P07949 [V804M]; experiment: Inhibition of human partial length RET V804M mutant (E713 to D1014 residues) expressed in bacterial expression system at 10 uM by Kinomescan method relative to control

**Q.** Which inhibition [1] does the source give for O=C(Nc1cccc([C@@H]2CN(c3ncnc4[nH]ccc34)CCN2CCO)c1)Nc1c(F)cccc1N1CCCC1 here?
**A.** 73%

**Q.** And the inhibition [2]?
**A.** 71%

**Q.** What about the inhibition [3] of the same compound?
**A.** 100%

**Q.** And the inhibition [4]?
**A.** 94%

**Q.** And the inhibition [5]?
**A.** 98%

**Q.** What about the inhibition [6] of the same compound?
**A.** 100%

**Q.** What about the Vd [7] of the same compound?
**A.** 0.21 L/kg

**Q.** And the inhibition [8]?
**A.** 74%

**Q.** What about the inhibition [9] of the same compound?
**A.** 100%

**Q.** And the inhibition [10]?
**A.** 93%

**Q.** What about the inhibition [11] of the same compound?
**A.** 100%

**Q.** And the inhibition [12]?
**A.** 100%

**Q.** What about the inhibition [13] of the same compound?
**A.** 100%

**Q.** For O=C(Nc1cccc([C@H]2CCCN(c3ncnc4[nH]ccc34)C2)c1)Nc1ccccc1N1CCCC1, which inhibition [14] is on record?
**A.** 0.15%

**Q.** And the inhibition [15]?
**A.** 95%

**Q.** What about the inhibition [16] of the same compound?
**A.** 94%

**Q.** And the inhibition [17]?
**A.** 55%

**Q.** What about the inhibition [18] of the same compound?
**A.** 100%

**Q.** And the inhibition [19]?
**A.** 69%

**Q.** What about the inhibition [20] of the same compound?
**A.** 1.3%

**Q.** And the inhibition [21]?
**A.** 17%

**Q.** And the inhibition [22]?
**A.** 61%

**Q.** What about the inhibition [23] of the same compound?
**A.** 92%

**Q.** What about the inhibition [24] of the same compound?
**A.** 81%

**Q.** What about the inhibition [25] of the same compound?
**A.** 100%

**Q.** And the inhibition [26]?
**A.** 44%

**Q.** What about the inhibition [27] of the same compound?
**A.** 0.65%
